Data published in patent US20100267561A1, “HERBICIDAL PYRIDAZINONE DERIVATIVES” (priority 2007, published 2010).

Key:
Type in all cases: in vivo
[1] = tested on: pigweed (Amaranthus retroflexus); assay: Test C pre-/postemergence plant response; settings: Preemergence
Outline: (§1)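 Application timings covered preemergence and postemergence (1- to 4-leaf plants, 2 to 18 cm), using a non-phytotoxic solvent mixture that included a surfactant. Controlled-environment holding lasted 15 to 25 days before visual scoring, where 100 denotes complete control and 0 no effect.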

[2] = tested on: winter wheat (Triticum aestivum); assay: Test C pre-/postemergence plant response; settings: Preemergence
Outline: as §1

[3] = tested on: downy bromegrass (Bromus tectorum); assay: Test C pre-/postemergence plant response; settings: Preemergence
Outline: as §1

wild oat (Avena fatua) = assay: Test C pre-/postemergence plant response; settings: Preemergence
Outline: as §1

[4] = tested on: spring barley (Hordeum vulgare); assay: Test C pre-/postemergence plant response; settings: Preemergence
Outline: as §1

[5] = tested on: blackgrass (Alopecurus myosuroides); assay: Test C pre-/postemergence plant response; settings: Preemergence
Outline: as §1

[6] = tested on: annual bluegrass (Poa annua); assay: Test C pre-/postemergence plant response; settings: Preemergence
Outline: as §1

[7] = tested on: Italian ryegrass (Lolium multiflorum); assay: Test C pre-/postemergence plant response; settings: Preemergence
Outline: as §1

[8] = tested on: green foxtail (Setaria viridis); assay: Test C pre-/postemergence plant response; settings: Preemergence
Outline: as §1

[9] = tested on: wild mustard (Sinapis arvensis); assay: Test C pre-/postemergence plant response; settings: Preemergence
Outline: as §1

[10] = tested on: canarygrass (Phalaris minor); assay: Test C pre-/postemergence plant response; settings: Preemergence
Outline: as §1

[11] = tested on: windgrass (Apera spica-venti); assay: Test C pre-/postemergence plant response; settings: Preemergence
Outline: as §1

[12] = tested on: spring wheat (Triticum aestivum); assay: Test C pre-/postemergence plant response; settings: Preemergence
Outline: as §1

[13] = tested on: winter barley (Hordeum vulgare); assay: Test C pre-/postemergence plant response; settings: Preemergence
Outline: as §1

[14] = tested on: umbrella sedge (Cyperus difformis); assay: Test B flooded paddy test plant response; settings: Flood (flooded paddy test), scale 0 to 100, 0 no effect, 100 complete control
Outline: (§2)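 Compounds were added directly to paddy water over 2-leaf-stage plants in pots flooded 3 cm above soil, water depth maintained. Visual injury scored against controls after 13 to 15 days in greenhouse, 0 (none) to 100 (complete control); dash indicates no result.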

[15] = tested on: ducksalad (Heteranthera limosa); assay: Test B flooded paddy test plant response; settings: Flood (flooded paddy test), scale 0 to 100, 0 no effect, 100 complete control
Outline: as §2

[16] = 8 g ai/ha, scale 0 to 100 (0 no effect, 100 complete control)
[17] = 62 g ai/ha, scale 0 to 100, 0 no effect, 100 complete control
[18] = 16 g ai/ha, scale 0 to 100 (0 no effect, 100 complete control)
[19] = 31 g ai/ha, scale 0 to 100 (0 no effect, 100 complete control)

C#CCOC(=O)Oc1cnn(C)c(=O)c1-n1nc(-c2ccc(Cl)cc2)cc1C [Compound 58]
95: Plant response rating, Canarygrass [10, 17]
70: Plant response rating, Bromegrass, Downy [3, 19] | Plant response rating, Windgrass [11, 17]
100: Plant response rating, Blackgrass [5, 17] | Plant response rating, Ryegrass, Italian [7, 19] | Plant response rating, Ryegrass, Italian [7, 17] | Plant response rating, Foxtail, Green [8, 19] | Plant response rating, Foxtail, Green [8, 17]
35: Plant response rating, Foxtail, Green [8, 16]
75: Plant response rating, Bromegrass, Downy [3, 17] | Plant response rating, Oat, Wild (wild oat (Avena fatua); [17]) | Plant response rating, Barley, Spring [4, 17] | Plant response rating, Barley, Winter [13, 17]
50: Plant response rating, Oat, Wild (wild oat (Avena fatua); [18]) | Plant response rating, Windgrass [11, 19] | Plant response rating, Wheat, Spring [12, 18]
60: Plant response rating, Wheat, Winter [2, 19] | Plant response rating, Canarygrass [10, 18] | Plant response rating, Wheat, Spring [12, 19]
0: Plant response rating, Pigweed [1, 16] | Plant response rating, Pigweed [1, 17] | Plant response rating, Wheat, Winter [2, 16] | Plant response rating, Wheat, Winter [2, 18] | Plant response rating, Bromegrass, Downy [3, 16] | Plant response rating, Oat, Wild (wild oat (Avena fatua); [16]) | Plant response rating, Barley, Spring [4, 16] | Plant response rating, Barley, Spring [4, 18] | Plant response rating, Blackgrass [5, 16] | Plant response rating, Bluegrass [6, 16] | Plant response rating, Bluegrass [6, 18] | Plant response rating, Bluegrass [6, 19] | Plant response rating, Bluegrass [6, 17] | Plant response rating, Mustard, Wild [9, 16] | Plant response rating, Mustard, Wild [9, 18] | Plant response rating, Mustard, Wild [9, 17] | Plant response rating, Canarygrass [10, 16] | Plant response rating, Windgrass [11, 16] | Plant response rating, Wheat, Spring [12, 16] | Plant response rating, Barley, Winter [13, 16] | Plant response rating, Barley, Winter [13, 18] | Plant response rating, Barley, Winter [13, 19] | Plant response rating, Sedge, Umbrella ([14]; 62 g ai/ha) | Plant response rating, Sedge, Umbrella ([14]; 250 g ai/ha) | Plant response rating, Ducksalad ([15]; 62 g ai/ha)
65: Plant response rating, Oat, Wild (wild oat (Avena fatua); [19]) | Plant response rating, Blackgrass [5, 18] | Plant response rating, Ryegrass, Italian [7, 18]
15: Plant response rating, Bromegrass, Downy [3, 18]
90: Plant response rating, Canarygrass [10, 19] | Plant response rating, Wheat, Spring [12, 17]
45: Plant response rating, Ducksalad ([15]; 250 g ai/ha)
10: Plant response rating, Barley, Spring [4, 19]
20: Plant response rating, Windgrass [11, 18]
25: Plant response rating, Ryegrass, Italian [7, 16]
80: Plant response rating, Wheat, Winter [2, 17]
98: Plant response rating, Blackgrass [5, 19] | Plant response rating, Foxtail, Green [8, 18]
